Measured values reported in patent US7037913B2, “Bicyclo 4.4.0 antiviral derivatives” (priority 2002, dated 2006).

System: HIV-1 single-round infectious reporter virus
Assay: Single-round infectious HIV-1 luciferase reporter virus infection of HeLa CD4 CCR5 cells
Format: cell-based
Conditions: Human immunodeficiency virus 1, HeLa-CD4/CCR5, 72 h, read-out: Group (EC50)
Source text: The materials and experimental procedures used to obtain the results for representative compounds of Formula I reported in Tables 7–9 are described below.
• Virus production—Human embryonic Kidney cell line, 293, propagated in Dulbecco's Modified Eagle Medium (Life Technologies, Gaithersburg, Md.) containing 10% fetal Bovine serum (FBS, Sigma, St. Louis, Mo.). • Virus infection—Human epithelial cell line, HeLa, expressing the HIV-1 receptors CD4 and CCR5 was propagated in Dulbecco's Modified Eagle Medium (Life Technologies, Gaithersburg, Md.) containing 10% fetal Bovine serum (FBS, Sigma, St. Louis, Mo.) and supplemented with 0.2 mg/ml Geneticin (Life Technologies, Gaithersburg, Md.) and 0.4 mg/ml Zeocin (Invitrogen, Carlsbad, Calif.). • Virus—Single-round infectious reporter virus was produced by co-transfecting human embryonic Kidney 293 cells with an HIV-1 envelope DNA expression vector and a proviral cDNA containing an envelope deletion mutation and the luciferase reporter gene inserted in place of HIV-1 nef sequences (Chen et al, Ref. 41). […] Viral infection was monitored by measuring luciferase expression from viral DNA in the infected cells using a luciferase reporter gene assay kit (Roche Molecular Biochemicals, Indianapolis, Ind.). […] Luciferase activity was then quantified by measuring luminescence using a Wallac microbeta scintillation counter. • 5. […]

SMILES | EC50 [nM]
C[C@@H]1CN(C(=O)c2ccccc2)CCN1C(=O)C(F)(F)c1ccc2ccccc2c1 [Example 54] | < 1000
C[C@@H]1CN(C(=O)c2ccccc2)CCN1C(=O)C1(c2ccc3ccccc3c2)CC1 [Example 55] | < 1000
